The structures appear in SMILES notation.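 A five-concentration, 48-hour dose response in 96-well plates underlies each endpoint, interpolated linearly between surrounding concentrations. GI50 = concentration required for 50% inhibition of growth.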 Active and inactive are the calls of the source. Cut-off read from the data, not from the text of the source: active = GI50 up to about 1.1 µM and inactive = higher.

Common to all, as to assay: inhibition of tumour cell growth, NCI panel, 48 h
For assay [1], the system named is SNB-19.
Assay [2] relates to NCI-H522.
Assay [3] concerns ACHN.
Assay [4] deals with HOP-62.
Assay [5] deals with TK-10.
The subject of assay [6] is RPMI-8226.
Assay [7] deals with SN12C.
Assay [8] relates to SK-MEL-5.
Assay [9] relates to HT-29.
Assay [10] has as its system OVCAR-4.
Assay [11] has as its system HL-60.
Assay [12] deals with HCT-15.
Assay [13] deals with CCRF-CEM.
The subject of assay [14] is Malme-3M.
Assay [15] has as its system OVCAR-3.
In assay [16] the test system is RXF 393.
For assay [17], the system named is SK-MEL-2.
For assay [18], the system named is SR.

Turning to `CCOc1cc2c(cc1O)/C(=N\O)C[C@@H]1[C@@H]2CC[C@]2(C)[C@@H](O)CC[C@@H]12`, the GI50 was < 0.01 µM (active) in assay [1]; < 0.0182 µM (active) in [2]; 0.126 µM (active) in assay [3]; < 0.0201 µM (active) in assay [4]; 29.6 µM (inactive) in assay [5]; 0.0238 µM (active) in assay [6]. Also, the GI50 in assay [7] is < 0.0216 µM (active); in assay [8], 0.01 µM (active); in [9], 6.71 µM (inactive); in assay [10] it was 6.34 µM (inactive); in assay [11] it was < 0.0155 µM (active); in [12], under 0.0199 µM.
Take `O=C(O)c1[nH]c(C(=O)O)c(CC(F)(F)C(F)(F)C(F)(F)F)c1CC(F)(F)C(F)(F)C(F)(F)F`: the GI50 in assay [1], in assay [2], in assay [13], in assay [3], in [4] and in assay [14] was > 100 µM (inactive) each time. For the same molecule, the GI50 in assay [5], in [6], in [7], in assay [8], in assay [9] and in assay [10] was > 100 µM (inactive) throughout. Also, the GI50 in assay [15] was > 100 µM (inactive); in assay [16] it was > 100 µM (inactive); in [11] it was > 100 µM (inactive); in assay [12] it was over 100 µM.
In the case of `COC1/C(=C\C(=O)OC(C)(C)C)c2ccccc2N1C(C)=O` (centres undefined), the GI50 in assay [1] was > 100 µM (inactive); in [13] it was > 100 µM (inactive); in [3], > 100 µM (inactive); in assay [4], > 100 µM (inactive); in assay [6] it was 34.8 µM (inactive); in assay [17], > 100 µM (inactive). Moreover, the GI50 was > 100 µM (inactive) in assay [7]; > 100 µM (inactive) in [9]; > 100 µM (inactive) in assay [10]; > 100 µM (inactive) in assay [15]; 26.6 µM (inactive) in assay [16]; 36.2 µM (inactive) in assay [11]. Also, the GI50 in assay [18] was 48 µM (inactive); in assay [12], over 100 µM.
As to `COC(=O)/C(=C/c1ccc(OC)cc1)NC(=O)c1ccccc1`, the GI50 was > 100 µM (inactive) in [1]; 2 µM (inactive) in assay [13]; > 100 µM (inactive) in assay [3]; > 100 µM (inactive) in assay [14]; > 100 µM (inactive) in [5]; > 100 µM (inactive) in assay [6]. Moreover, the GI50 in assay [17], in assay [7], in assay [8], in [9], in assay [10] and in [16] was > 100 µM (inactive) each time. Further, the GI50 is > 100 µM (inactive) in assay [18] and over 100 µM in assay [12].
For `O=C1/C(=C\c2ccccc2)C2/C(=C\c3ccccc3)C(=O)/C(=C\c3ccccc3)C2/C1=C\c1ccccc1` (centres undefined), the GI50 in assay [2] is 0.592 µM (active); in [13], 0.34 µM (active); in assay [3] it was 2.29 µM (inactive); in assay [4], 2.4 µM (inactive); in [14], 1.77 µM (inactive); in [5], 3.87 µM (inactive). The GI50 is 0.336 µM (active) in assay [6]; 1.81 µM (inactive) in assay [17]; 2.01 µM (inactive) in [7]; 1.9 µM (inactive) in assay [8]; 1.34 µM (inactive) in [9]; 1.21 µM (inactive) in assay [10]. The GI50 in assay [15] was 1.73 µM (inactive); in assay [16], 1.53 µM (inactive); in assay [11], 0.608 µM (active); in [12], 1.32 µM.
For the molecule `CCCCOC1CC2(c3ccc(OC)cc3)C(=O)c3ccccc3N2O1` (centres undefined), the GI50 in [1] was > 10 µM (inactive); in assay [2], 21.3 µM (inactive); in assay [13], 31.5 µM (inactive); in assay [3], > 10 µM (inactive); in [14] it was 19.2 µM (inactive); in assay [5] it was > 100 µM (inactive). Also, the GI50 is 18 µM (inactive) in [6]; 71.6 µM (inactive) in assay [17]; > 10 µM (inactive) in assay [7]; 31.7 µM (inactive) in assay [8]; 56.1 µM (inactive) in assay [15]; 16.6 µM (inactive) in assay [16]. The same molecule returned a GI50 in assay [12] of over 10 µM.
In the case of `C=CCN1/C(=C2\SC(=S)N(c3ccc(C)cc3)C2=O)Sc2c1nc[nH]c2=O`, the GI50 in [1] is > 100 µM (inactive); in [2] it was 59.2 µM (inactive); in [13] it was > 100 µM (inactive); in [3] it was > 100 µM (inactive); in assay [4], > 100 µM (inactive); in assay [14], 78.2 µM (inactive). Besides, the GI50 was > 100 µM (inactive) in assay [5]; > 100 µM (inactive) in [6]; 43.3 µM (inactive) in [17]; 77.1 µM (inactive) in assay [7]; 66.1 µM (inactive) in assay [8]; > 100 µM (inactive) in assay [9]. Further, the GI50 is 96.2 µM (inactive) in assay [10]; > 100 µM (inactive) in assay [15]; 26.4 µM (inactive) in assay [16]; > 100 µM (inactive) in assay [11]; 47 µM in [12].
Regarding `O=C(c1ccccc1)C1OC12C(=O)Nc1ccccc12` (centres undefined), the GI50 in assay [1] was 37.3 µM (inactive); in assay [2], 13.3 µM (inactive); in assay [13] it was 5.68 µM (inactive); in [3], 56.9 µM (inactive); in assay [4], 62.5 µM (inactive); in [14] it was 29.6 µM (inactive). Also, the GI50 in assay [5] is 40.3 µM (inactive); in [6], 20.7 µM (inactive); in assay [17], 44.2 µM (inactive); in [7], 49.4 µM (inactive); in assay [8], 11.3 µM (inactive); in [9], 19.7 µM (inactive). The GI50 in assay [10] was 47.8 µM (inactive); in assay [15], 34.8 µM (inactive); in assay [16], 20.9 µM (inactive); in [11], 3.27 µM (inactive); in assay [12], over 10 µM.
As for `CCCCCCCCCCCCCP(=O)(O)OCC`, the GI50 in [1], in assay [2], in assay [13], in assay [3], in [4] and in [14] was > 100 µM (inactive) in each case. In addition, the GI50 in [5], in assay [17], in [7], in assay [8], in [9] and in [10] was > 100 µM (inactive) in each case. Also, the GI50 in [15] was > 100 µM (inactive); in assay [16] it was > 100 µM (inactive); in assay [11] it was > 100 µM (inactive); in assay [12], over 100 µM.
As to `CC(C)OP(=S)(NC(=S)c1ccccc1)OC(C)C`, the GI50 in [1], in assay [13], in assay [3], in assay [14], in assay [5] and in assay [17] was > 100 µM (inactive) throughout. Also, the GI50 was > 100 µM (inactive) in [7]; 42.9 µM (inactive) in assay [8]; > 100 µM (inactive) in assay [9]; > 100 µM (inactive) in assay [10]; > 100 µM (inactive) in [15]; over 100 µM in [12].
For `O=C1C=CC2(O)OCC3C=C4O[C@@H]5OC6(CCCCC6)O[C@@H]5C4[C@@H]2[C@@H]13` (some centres undefined), the GI50 in assay [1] was > 100 µM (inactive); in assay [2] it was 11.3 µM (inactive); in assay [13], 8.73 µM (inactive); in [3], 26.1 µM (inactive); in [4], > 100 µM (inactive); in assay [14], 30.3 µM (inactive). The GI50 is 20.7 µM (inactive) in [5]; 16.2 µM (inactive) in [6]; 82 µM (inactive) in [17]; 48 µM (inactive) in assay [7]; 43.5 µM (inactive) in assay [8]; 22.3 µM (inactive) in assay [9]. Also, the GI50 in assay [10] is 22.6 µM (inactive); in [15], 24.2 µM (inactive); in assay [11] it was 16.5 µM (inactive); in [12], 17 µM.
For the molecule `Cc1nc(-c2nc(C)c(C(=O)NNC(=O)C[n+]3ccccc3)s2)sc1C(=O)NNC(=O)C[n+]1ccccc1`, the GI50 is 25.4 µM (inactive) in assay [1]; 41.3 µM (inactive) in assay [13]; 59.2 µM (inactive) in assay [3]; 33.1 µM (inactive) in assay [4]; > 100 µM (inactive) in [14]; > 100 µM (inactive) in assay [5]. Moreover, the GI50 is 64.6 µM (inactive) in assay [6]; > 100 µM (inactive) in assay [17]; 67.5 µM (inactive) in assay [7]; 45.7 µM (inactive) in assay [8]; > 100 µM (inactive) in assay [9]; 90.2 µM (inactive) in [15]. Besides, the GI50 in assay [16] was 39.5 µM (inactive); in assay [11] it was 40.2 µM (inactive); in assay [12], 56.4 µM.
For the molecule `c1ccc2c(CNCCCCCCCCNCc3cccc4ccccc34)cccc2c1`, the GI50 in assay [2] is 1.79 µM (inactive); in [13] it was 1.85 µM (inactive); in assay [3], 2.9 µM (inactive); in assay [4] it was 16.4 µM (inactive); in [14], 1.95 µM (inactive); in assay [5], 1.66 µM (inactive). In addition, the GI50 in assay [6] was 1.67 µM (inactive); in assay [17] it was 1.65 µM (inactive); in assay [7] it was 6.43 µM (inactive); in assay [8], 1.85 µM (inactive); in [9], 1.8 µM (inactive); in assay [10] it was 2.3 µM (inactive). For the same molecule, the GI50 is 10.6 µM (inactive) in [15], 1.74 µM (inactive) in [16], 1.86 µM (inactive) in [11] and 1.73 µM in assay [12].

(Values after ChEMBL document CHEMBL1201862, “PubChem BioAssay data set” (2004).)
